Read-outs that look alike come from different tables or passages of the source.

This test concerns the target T1, human P2X3 receptor (Homo sapiens, UniProt P56373).
T1 construct: expressed in transfected cells; host or cells: CHO-K1
T1 sequence (P56373 1-397): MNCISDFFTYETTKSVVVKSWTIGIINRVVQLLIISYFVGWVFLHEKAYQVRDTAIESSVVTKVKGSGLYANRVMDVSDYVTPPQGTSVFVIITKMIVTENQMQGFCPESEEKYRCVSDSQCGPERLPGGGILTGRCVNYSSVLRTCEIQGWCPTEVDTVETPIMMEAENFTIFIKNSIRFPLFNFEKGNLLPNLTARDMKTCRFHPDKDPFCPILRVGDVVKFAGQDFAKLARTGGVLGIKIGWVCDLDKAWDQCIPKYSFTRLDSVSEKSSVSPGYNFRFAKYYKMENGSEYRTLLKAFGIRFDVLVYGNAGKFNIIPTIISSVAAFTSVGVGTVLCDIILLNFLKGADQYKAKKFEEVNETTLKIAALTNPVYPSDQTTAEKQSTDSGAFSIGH
Kind of test: Calcium luminescence (photoprotein) assay in CHO-K1 cells co-expressing human P2X3 receptor, α,β-Met-ATP stimulation, FLEXSTATION readout. The test is classed as cell-based. The procedure, abridged: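 CHO-K1 cells co-expressing human P2X3 and a Ca2+-sensitive photoprotein, loaded with coelenterazine in Tyrode's buffer (pH 7.4) for 4 h at 37 °C. Compounds injected 4 min before α,β-Met-ATP stimulation; luminescence recorded, IC50 and pseudo-Hill slope from nonlinear regression of inhibition curves.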

Where [1] appears, read: Table 6, human P2X3 receptor antagonist activity, CHO-K1 cells, α,β-Met-ATP, read-out: h-P2X3 IC50.
Where [2] appears, read: Table 7, human P2X3 receptor antagonist activity, CHO-K1 cells, α,β-Met-ATP, read-out: h-P2X3 IC50.

With `CC(C)(C)C1C(=O)N=C2c3ncc(N4CCOCC4)cc3N(Cc3ccc(Cl)cc3)C(=O)N21` (centres unmarked) [Example 68, 3-tert-butyl-6-(4-chlorobenzyl)-8-(morpholin-4-yl)imidazo[1,2-c]pyrido[2,3-e]pyrimidine-2,5(3H,6H)-dione], under setting [1], the IC50 is 109 nM.
On the same count and under the same terms, the value for `COc1ccc(CN2C(=O)N3C(=NC(=O)C3C(C)(C)C)c3ncc(N4CCOCC4)cc32)cc1` (centres unmarked) [Example 69, 3-tert-butyl-6-(4-methoxybenzyl)-8-(morpholin-4-yl)imidazo[1,2-c]pyrido[2,3-e]pyrimidine-2,5(3H,6H)-dione] was 98.3 nM.
In the case of `COc1cc(Cn2c(=O)n3c(C)c(C)nc3c3ncc(NCC4COC4)cc32)cc(OC)c1` [Example 70, 6-(3,5-dimethoxybenzyl)-2,3-dimethyl-8-{[(oxetan-3-yl)methyl]amino}imidazo[1,2-c]pyrido[2,3-e]pyrimidin-5(6H)-one], under setting [2], the IC50 was determined as 139 nM.
On to `Cc1ccc(Cn2c(=O)n3cc(CC(C)C)nc3c3ncccc32)cc1` [Example 72, 6-(4-methylbenzyl)-2-(2-methylpropyl)imidazo[1,2-c]pyrido[2,3-e]pyrimidin-5(6H)-one], for which the IC50 under setting [2] stood at 1390 nM.
The same measure, in the same setting: the same measure for `CC(C)Cc1cn2c(=O)n(Cc3ccc(Cl)cc3)c3cc(N4CC5(COC5)C4)cnc3c2n1` [Example 73, 6-(4-chlorobenzyl)-2-(2-methylpropyl)-8-(2-oxa-6-azaspiro[3.3]heptan-6-yl)imidazo[1,2-c]pyrido[2,3-e]pyrimidin-5(6H)-one]: 917 nM; for `COc1cc(Cn2c(=O)n3cc(CC(C)C)nc3c3ncc(N4CCOCC4)cc32)cc(OC)c1` [Example 74, 6-(3,5-dimethoxybenzyl)-2-(2-methylpropyl)-8-(morpholin-4-yl)imidazo[1,2-c]pyrido[2,3-e]pyrimidin-5(6H)-one]: 416 nM.
On the same count and under the same terms, the same measure for `CC(C)Cc1cn2c(=O)n(Cc3c(F)cc(Cl)cc3F)c3cc(N4CCOCC4)cnc3c2n1` [Example 75, 6-(4-chloro-2,6-difluorobenzyl)-2-(2-methylpropyl)-8-(morpholin-4-yl)imidazo[1,2-c]pyrido[2,3-e]pyrimidin-5(6H)-one]: 3510 nM.
On the same count and under the same terms, the value for `CCc1nc2c3ncc(NCC4COC4)cc3n(Cc3cc(OC)cc(OC)c3)c(=O)n2c1C` [Example 76, 6-(3,5-dimethoxybenzyl)-2-ethyl-3-methyl-8-{[(oxetan-3-yl)methyl]amino}imidazo[1,2-c]pyrido[2,3-e]pyrimidin-5(6H)-one] was 381 nM; that for `CCc1c(C)nc2c3ncc(NCC4COC4)cc3n(Cc3cc(OC)cc(OC)c3)c(=O)n12` [Example 77, 6-(3,5-dimethoxybenzyl)-3-ethyl-2-methyl-8-{[(oxetan-3-yl)methyl]amino}imidazo[1,2-c]pyrido[2,3-e]pyrimidin-5(6H)-one] was 239 nM.
`COc1ccc(Cn2c(=O)n3cc(CC(C)C)nc3c3ncc(N4CCOCC4)cc32)cc1` [Example 78, 6-(4-methoxybenzyl)-2-(2-methylpropyl)-8-(morpholin-4-yl)imidazo[1,2-c]pyrido[2,3-e]pyrimidin-5(6H)-one]: the IC50 under setting [2] was determined as 631 nM.
Same read-out and setting: the value for `COc1cc(Cn2c(=O)n3c(C)c(C(C)C)nc3c3ncc(N4CCOCC4)cc32)cc(OC)c1` [Example 79, 6-(3,5-dimethoxybenzyl)-3-methyl-8-(morpholin-4-yl)-2-(propan-2-yl)imidazo[1,2-c]pyrido[2,3-e]pyrimidin-5(6H)-one] was 53.7 nM.
The same measure, in the same setting: the value for `COc1cc(Cn2c(=O)n3cc(CC(C)C)nc3c3ncc(N4CCN(C(=O)CO)CC4)cc32)cc(OC)c1` [Example 80, 6-(3,5-dimethoxybenzyl)-8-[4-(hydroxyacetyl)piperazin-1-y1]-2-(2-methylpropyl)imidazo[1,2-c]pyrido[2,3-e]pyrimidin-5(6H)-one] was 1530 nM; that for `COc1cc(Cn2c(=O)n3c(C)c(C)nc3c3ncc(N4CC5(COC5)C4)cc32)cc(OC)c1` [Example 81, 6-(3,5-dimethoxybenzyl)-2,3-dimethyl-8-(2-oxa-6-azaspiro[3.3]heptan-6-yl)imidazo[1,2-c]pyrido[2,3-e]pyrimidin-5(6H)-one] was 269 nM.
The same measure, in the same setting: the value for `COc1cc(Cn2c(=O)n3c(C)c(C)nc3c3ncc(N4CCOCC4)cc32)cc(OC)c1` [Example 82, 6-(3,5-dimethoxybenzyl)-2,3-dimethyl-8-(morpholin-4-yl)imidazo[1,2-c]pyrido[2,3-e]pyrimidin-5(6H)-one] was 332 nM.
Consider `COc1cc(Cn2c(=O)n3c(C)c(C(C)C)nc3c3ncc(NCC4COC4)cc32)cc(OC)c1` [Example 83, 6-(3,5-dimethoxybenzyl)-3-methyl-8-[(oxetan-3-ylmethyl)amino]-2-(propan-2-yl)imidazo[1,2-c]pyrido[2,3-e]pyrimidin-5(6H)-one], for which the IC50 under setting [2] came to 292 nM.
Consider `COc1cc(Cn2c(=O)n3c(C)c(C(C)C)nc3c3ncc(N4CCN(C(C)=O)CC4)cc32)cc(OC)c1` [Example 84, 8-(4-acetylpiperazin-1-yl)-6-(3,5-dimethoxybenzyl)-3-methyl-2-(propan-2-yl)imidazo[1,2-c]pyrido[2,3-e]pyrimidin-5(6H)-one], for which the IC50 under setting [2] worked out at 259 nM.
Still for that read-out and setting: the same measure for `COc1cc(Cn2c(=O)n3c(C)c(C)nc3c3ncc(N4CCC(OC)CC4)cc32)cc(OC)c1` [Example 85, 6-(3,5-dimethoxybenzyl)-8-(4-methoxypiperidin-1-yl)-2,3-dimethylimidazo[1,2-c]pyrido[2,3-e]pyrimidin-5(6H)-one]: 1300 nM.
On the same count and under the same terms, the value for `COc1cc(Cn2c(=O)n3c(C)c(C(C)C)nc3c3ncc(N4CCC(OC)CC4)cc32)cc(OC)c1` [Example 87, 6-(3,5-dimethoxybenzyl)-8-(4-methoxypiperidin-1-yl)-3-methyl-2-(propan-2-yl)imidazo[1,2-c]pyrido[2,3-e]pyrimidin-5(6H)-one] was 444 nM; that for `COCC1CN(c2cnc3c(c2)n(Cc2cc(OC)cc(OC)c2)c(=O)n2c(C)c(C(C)C)nc32)C1` [Example 88, 6-(3,5-dimethoxybenzyl)-8-[3-(methoxymethyl)azetidin-1-y1]-3-methyl-2-(propan-2-yl)imidazo[1,2-c]pyrido[2,3-e]pyrimidin-5(6H)-one] was 53.6 nM; that for `COc1ccc(Cn2c(=O)n3c(C)c(C(C)C)nc3c3ncc(N4CCOCC4)cc32)cc1` [Example 89, 6-(4-methoxybenzyl)-3-methyl-8-(morpholin-4-yl)-2-(propan-2-yl)imidazo[1,2-c]pyrido[2,3-e]pyrimidin-5(6H)-one] was 575 nM.
Turning to `Cc1c(C(C)C)nc2c3ncc(N4CCOCC4)cc3n(Cc3ccc(Cl)cc3)c(=O)n12` [Example 90], the IC50 under setting [2] worked out at 332 nM.
The same measure, in the same setting: the same measure for `Cc1c(C(C)C)nc2c3ncc(N4CC5(COC5)C4)cc3n(Cc3ccc(Cl)cc3)c(=O)n12` [Example 91, 6-(4-chlorobenzyl)-3-methyl-8-(2-oxa-6-azaspiro[3.3]heptan-6-yl)-2-(propan-2-yl)imidazo[1,2-c]pyrido[2,3-e]pyrimidin-5(6H)-one]: 507 nM.
The same measure, in the same setting: the value for `COCC1CN(c2cnc3c(c2)n(Cc2ccc(OC)cc2)c(=O)n2c(C)c(C(C)C)nc32)C1` [Example 92, 6-(4-methoxybenzyl)-8-[3-(methoxymethyl)azetidin-1-y1]-3-methyl-2-(propan-2-yl)imidazo[1,2-c]pyrido[2,3-e]pyrimidin-5(6H)-one] was 802 nM; that for `COc1ccc(Cn2c(=O)n3c(C)c(C(C)C)nc3c3ncc(N4CC5(COC5)C4)cc32)cc1` [Example 93, 6-(4-methoxybenzyl)-3-methyl-8-(2-oxa-6-azaspiro[3.3]heptan-6-yl)-2-(propan-2-yl)imidazo[1,2-c]pyrido[2,3-e]pyrimidin-5(6H)-one] was 1010 nM; that for `Cc1c(C(C)C)nc2c3ncc(C(=O)N4CCC(O)CC4)cc3n(Cc3ccc(Cl)cc3)c(=O)n12` [Example 94, 6-(4-chlorobenzyl)-8-[(4-hydroxypiperidin-1-yl)carbonyl]-3-methyl-2-(propan-2-yl)imidazo[1,2-c]pyrido[2,3-e]pyrimidin-5(6H)-one] was 8260 nM.
On the same count and under the same terms, the value for `Cc1c(C(C)C)nc2c3ncc(C(=O)NCCO)cc3n(Cc3ccc(Cl)cc3)c(=O)n12` [Example 95, 6-(4-chlorobenzyl)-n-(2-hydroxyethyl)-3-methyl-5-oxo-2-(propan-2-y1)-5,6-dihydroimidazo[1,2-c]pyrido[2,3-e]pyrimidine-8-carboxamide] was 2980 nM.
As for `COc1ccc(Cn2c(=O)n3c(C(C)(C)C)nnc3c3ncc(N4CCOCC4)cc32)cc1` [Example 96, 3-tert-butyl-6-(4-methoxybenzyl)-8-(morpholin-4-yl)pyrido[2,3-e][1,2,4]triazolo[4,3-c]pyrimidin-5(6H)-one], the IC50 (running text b1263, read-out: inhibition (human P2X3 receptor)) worked out at 20.7 nM.
With `COc1ccc(Cn2c(=O)n3c(C(C)C)nnc3c3ncc(N4CCOCC4)cc32)cc1` [Example 97, 6-(4-methoxybenzyl)-8-(morpholin-4-yl)-3-(propan-2-yl)pyrido[2,3-e][1,2,4]triazolo[4,3-c]pyrimidin-5(6H)-one], the IC50 under setting [2] amounted to 394 nM.
Same read-out and setting: the same measure for `COc1ccc(Cn2c(=O)n3c(COC4CCOCC4)nnc3c3ncc(N4CCOCC4)cc32)cc1` [Example 98, 6-(4-methoxybenzyl)-8-(morpholin-4-yl)-3-[(tetrahydro-2H-pyran-4-yloxy)methyl]pyrido[2,3-e][1,2,4]triazolo[4,3-c]pyrimidin-5(6H)-one]: 897 nM.

Values taken from patent publication US11999732B2, “P2X3 receptor antagonists” (RECORDATI INDUSTRIA CHIMICA E FARMACEUTICA SPA, priority 2018, dated 2024).
